Laboratory results published in ChEMBL document CHEMBL4507319 (2021).

Key:
[1] = biological target: Alpha-1B adrenergic receptor (Homo sapiens) (UniProt P35368); conditions: Compound concentration 10.0 uM
[2] = biological target: T1, Serine/threonine-protein kinase tousled-like 1 (Homo sapiens) (UniProt Q9UKI8); conditions: Compound concentration 1000.0 nM
T1 sequence (whole entry): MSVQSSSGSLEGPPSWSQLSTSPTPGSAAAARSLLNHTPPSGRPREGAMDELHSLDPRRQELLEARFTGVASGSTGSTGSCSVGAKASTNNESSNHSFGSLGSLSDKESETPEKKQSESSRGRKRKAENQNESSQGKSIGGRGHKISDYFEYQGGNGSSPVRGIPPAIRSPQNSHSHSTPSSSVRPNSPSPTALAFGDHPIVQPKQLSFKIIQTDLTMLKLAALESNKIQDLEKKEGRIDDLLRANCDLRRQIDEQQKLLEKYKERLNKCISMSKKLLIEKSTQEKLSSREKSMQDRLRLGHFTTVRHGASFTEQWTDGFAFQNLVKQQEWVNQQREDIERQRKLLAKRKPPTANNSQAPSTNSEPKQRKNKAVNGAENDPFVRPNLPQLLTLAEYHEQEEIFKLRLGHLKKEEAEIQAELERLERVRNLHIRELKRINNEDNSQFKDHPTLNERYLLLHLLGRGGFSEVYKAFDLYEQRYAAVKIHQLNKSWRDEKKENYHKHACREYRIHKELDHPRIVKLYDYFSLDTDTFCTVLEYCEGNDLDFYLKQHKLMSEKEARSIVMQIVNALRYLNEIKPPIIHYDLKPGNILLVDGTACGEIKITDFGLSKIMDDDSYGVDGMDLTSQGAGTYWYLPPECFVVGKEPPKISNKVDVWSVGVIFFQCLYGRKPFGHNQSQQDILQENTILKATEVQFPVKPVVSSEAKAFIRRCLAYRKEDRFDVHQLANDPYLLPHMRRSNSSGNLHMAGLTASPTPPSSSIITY

[3] = biological target: Phosphatidylinositol 4,5-bisphosphate 3-kinase catalytic subunit gamma isoform (Homo sapiens) (UniProt P48736); conditions: Compound concentration 1000.0 nM
[4] = biological target: Serine/threonine-protein kinase PAK 3 (Homo sapiens) (UniProt O75914); conditions: Compound concentration 1000.0 nM
[5] = biological target: G protein-coupled receptor kinase 4 (Homo sapiens) (UniProt P32298); conditions: Compound concentration 1000.0 nM
Chain of G protein-coupled receptor kinase 4 (Homo sapiens) (P32298 whole entry, looked up): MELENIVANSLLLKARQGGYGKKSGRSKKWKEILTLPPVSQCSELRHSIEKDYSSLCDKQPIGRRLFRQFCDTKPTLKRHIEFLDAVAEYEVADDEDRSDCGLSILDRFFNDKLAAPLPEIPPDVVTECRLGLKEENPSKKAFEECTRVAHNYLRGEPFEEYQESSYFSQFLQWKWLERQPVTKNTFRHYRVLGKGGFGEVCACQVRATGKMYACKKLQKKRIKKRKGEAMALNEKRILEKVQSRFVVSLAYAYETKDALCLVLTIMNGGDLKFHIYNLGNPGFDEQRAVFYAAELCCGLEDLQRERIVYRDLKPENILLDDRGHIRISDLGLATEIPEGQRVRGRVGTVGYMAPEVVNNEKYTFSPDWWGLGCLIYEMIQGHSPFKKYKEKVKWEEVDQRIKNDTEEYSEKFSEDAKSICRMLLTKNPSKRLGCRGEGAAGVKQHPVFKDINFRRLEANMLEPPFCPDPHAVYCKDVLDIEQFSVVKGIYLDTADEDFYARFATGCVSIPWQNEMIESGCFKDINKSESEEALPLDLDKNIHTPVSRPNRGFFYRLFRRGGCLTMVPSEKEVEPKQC

[6] = biological target: Sodium-dependent serotonin transporter (Homo sapiens) (UniProt P31645); conditions: Compound concentration 10.0 uM
[7] = biological target: Ephrin type-A receptor 2 (Homo sapiens) (UniProt P29317); conditions: Compound concentration 1000.0 nM
[8] = biological target: Activin receptor type-2B (Homo sapiens) (UniProt Q13705); conditions: Compound concentration 1000.0 nM
[9] = system: Tyrosine-protein kinase ABL1 (Homo sapiens), P00519 [F317L]; conditions: Compound concentration 1000.0 nM
[10] = biological target: Fibroblast growth factor receptor 2 (Homo sapiens) (UniProt P21802); conditions: Compound concentration 1000.0 nM
Chain of Fibroblast growth factor receptor 2 (Homo sapiens) (P21802 22-821 limits assumed): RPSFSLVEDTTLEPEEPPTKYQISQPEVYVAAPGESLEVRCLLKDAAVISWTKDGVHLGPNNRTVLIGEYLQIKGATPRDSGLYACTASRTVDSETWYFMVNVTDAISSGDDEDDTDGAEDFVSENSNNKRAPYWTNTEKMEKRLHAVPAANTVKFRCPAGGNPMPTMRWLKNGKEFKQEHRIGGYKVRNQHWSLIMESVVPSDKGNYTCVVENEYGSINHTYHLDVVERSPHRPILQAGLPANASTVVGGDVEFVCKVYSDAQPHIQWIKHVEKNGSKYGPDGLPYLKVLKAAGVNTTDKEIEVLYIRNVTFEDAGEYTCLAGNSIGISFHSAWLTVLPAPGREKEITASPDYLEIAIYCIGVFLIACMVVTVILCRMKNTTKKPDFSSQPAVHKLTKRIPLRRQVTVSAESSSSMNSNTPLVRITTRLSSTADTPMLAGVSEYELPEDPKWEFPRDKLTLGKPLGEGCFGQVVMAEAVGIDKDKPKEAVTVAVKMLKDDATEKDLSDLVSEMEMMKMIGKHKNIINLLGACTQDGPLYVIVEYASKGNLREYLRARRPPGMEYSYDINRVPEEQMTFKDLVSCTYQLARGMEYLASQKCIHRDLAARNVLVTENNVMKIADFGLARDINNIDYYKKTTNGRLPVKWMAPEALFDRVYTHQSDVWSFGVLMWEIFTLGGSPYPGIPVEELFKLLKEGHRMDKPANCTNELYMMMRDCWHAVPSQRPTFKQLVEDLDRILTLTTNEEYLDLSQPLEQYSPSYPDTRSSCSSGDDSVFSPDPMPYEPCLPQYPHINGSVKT

[11] = system: Phosphatidylinositol 4,5-bisphosphate 3-kinase catalytic subunit alpha isoform (Homo sapiens), P42336 [E545A]; conditions: Compound concentration 1000.0 nM
Chain of Phosphatidylinositol 4,5-bisphosphate 3-kinase catalytic subunit alpha isoform (Homo sapiens), P42336 [E545A] (P42336 whole entry E545A, canonical isoform): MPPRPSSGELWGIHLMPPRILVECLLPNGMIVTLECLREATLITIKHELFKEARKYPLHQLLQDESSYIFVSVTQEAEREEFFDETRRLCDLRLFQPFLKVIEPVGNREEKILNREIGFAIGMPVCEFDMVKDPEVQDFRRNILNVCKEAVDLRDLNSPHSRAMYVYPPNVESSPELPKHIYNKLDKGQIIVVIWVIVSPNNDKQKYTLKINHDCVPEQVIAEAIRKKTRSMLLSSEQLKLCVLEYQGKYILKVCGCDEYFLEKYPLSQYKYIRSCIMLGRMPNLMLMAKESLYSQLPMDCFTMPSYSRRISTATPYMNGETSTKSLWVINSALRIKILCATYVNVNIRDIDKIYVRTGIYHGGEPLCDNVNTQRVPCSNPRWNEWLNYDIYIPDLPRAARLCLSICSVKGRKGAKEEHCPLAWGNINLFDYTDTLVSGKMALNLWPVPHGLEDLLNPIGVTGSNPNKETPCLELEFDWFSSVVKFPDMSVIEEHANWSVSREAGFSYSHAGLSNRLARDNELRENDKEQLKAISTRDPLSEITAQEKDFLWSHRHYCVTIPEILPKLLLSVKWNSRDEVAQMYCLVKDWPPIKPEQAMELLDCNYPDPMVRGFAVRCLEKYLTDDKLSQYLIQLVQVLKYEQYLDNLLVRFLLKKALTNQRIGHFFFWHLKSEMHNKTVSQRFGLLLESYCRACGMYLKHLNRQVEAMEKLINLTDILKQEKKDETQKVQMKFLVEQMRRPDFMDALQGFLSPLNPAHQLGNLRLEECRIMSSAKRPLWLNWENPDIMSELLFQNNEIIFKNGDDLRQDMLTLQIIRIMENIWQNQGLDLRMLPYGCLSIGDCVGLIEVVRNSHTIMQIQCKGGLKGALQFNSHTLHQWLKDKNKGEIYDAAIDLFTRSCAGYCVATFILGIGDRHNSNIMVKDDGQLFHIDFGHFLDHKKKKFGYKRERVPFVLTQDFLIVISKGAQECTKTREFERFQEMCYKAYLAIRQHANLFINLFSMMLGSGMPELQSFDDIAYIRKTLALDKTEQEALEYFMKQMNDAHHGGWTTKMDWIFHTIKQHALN

[12] = system: Phosphatidylinositol 4,5-bisphosphate 3-kinase catalytic subunit alpha isoform (Homo sapiens), P42336 [H1047L]; conditions: Compound concentration 1000.0 nM
Chain of Phosphatidylinositol 4,5-bisphosphate 3-kinase catalytic subunit alpha isoform (Homo sapiens), P42336 [H1047L] (P42336 whole entry H1047L, canonical isoform): as the sequence (P42336 whole entry E545A, canonical isoform) above, with A545E, H1047L counted along it

[13] = biological target: Homeodomain-interacting protein kinase 1 (Homo sapiens) (UniProt Q86Z02); conditions: Compound concentration 1000.0 nM
Chain of Homeodomain-interacting protein kinase 1 (Homo sapiens) (Q86Z02 whole entry, looked up): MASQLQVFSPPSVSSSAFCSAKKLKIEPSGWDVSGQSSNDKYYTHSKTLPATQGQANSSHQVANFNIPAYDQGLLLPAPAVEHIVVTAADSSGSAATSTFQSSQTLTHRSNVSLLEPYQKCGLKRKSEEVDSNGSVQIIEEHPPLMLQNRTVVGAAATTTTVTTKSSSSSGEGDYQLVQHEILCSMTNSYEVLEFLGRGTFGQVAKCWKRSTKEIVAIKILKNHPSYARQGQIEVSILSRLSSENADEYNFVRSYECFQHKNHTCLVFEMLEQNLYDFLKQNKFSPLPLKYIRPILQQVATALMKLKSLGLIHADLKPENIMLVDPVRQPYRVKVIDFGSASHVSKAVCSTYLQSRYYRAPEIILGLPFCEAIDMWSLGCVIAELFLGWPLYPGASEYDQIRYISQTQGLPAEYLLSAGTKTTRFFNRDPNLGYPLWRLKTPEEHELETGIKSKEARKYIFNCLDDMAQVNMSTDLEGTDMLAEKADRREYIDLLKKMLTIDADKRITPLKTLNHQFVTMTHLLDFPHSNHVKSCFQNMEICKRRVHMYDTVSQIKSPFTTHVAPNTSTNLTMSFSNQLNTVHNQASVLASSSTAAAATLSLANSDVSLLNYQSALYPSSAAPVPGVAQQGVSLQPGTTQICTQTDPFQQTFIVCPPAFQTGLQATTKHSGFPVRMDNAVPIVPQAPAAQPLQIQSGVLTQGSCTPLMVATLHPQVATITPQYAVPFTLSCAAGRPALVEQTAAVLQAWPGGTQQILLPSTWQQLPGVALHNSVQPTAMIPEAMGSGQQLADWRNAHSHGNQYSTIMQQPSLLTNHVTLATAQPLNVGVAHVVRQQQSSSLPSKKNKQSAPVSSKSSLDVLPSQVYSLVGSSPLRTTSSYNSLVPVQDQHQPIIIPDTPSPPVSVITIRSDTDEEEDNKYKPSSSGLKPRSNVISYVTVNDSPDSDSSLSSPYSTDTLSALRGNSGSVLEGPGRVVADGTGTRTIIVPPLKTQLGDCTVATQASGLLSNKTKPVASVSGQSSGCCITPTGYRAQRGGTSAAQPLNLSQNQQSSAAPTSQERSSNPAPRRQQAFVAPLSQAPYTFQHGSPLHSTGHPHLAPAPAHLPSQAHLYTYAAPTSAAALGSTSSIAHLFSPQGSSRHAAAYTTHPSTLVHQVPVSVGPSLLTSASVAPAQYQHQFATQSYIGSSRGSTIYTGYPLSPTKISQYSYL

[14] = biological target: Serine/threonine-protein kinase 16 (Homo sapiens) (UniProt O75716); conditions: Compound concentration 1000.0 nM
Chain of Serine/threonine-protein kinase 16 (Homo sapiens) (O75716 whole entry): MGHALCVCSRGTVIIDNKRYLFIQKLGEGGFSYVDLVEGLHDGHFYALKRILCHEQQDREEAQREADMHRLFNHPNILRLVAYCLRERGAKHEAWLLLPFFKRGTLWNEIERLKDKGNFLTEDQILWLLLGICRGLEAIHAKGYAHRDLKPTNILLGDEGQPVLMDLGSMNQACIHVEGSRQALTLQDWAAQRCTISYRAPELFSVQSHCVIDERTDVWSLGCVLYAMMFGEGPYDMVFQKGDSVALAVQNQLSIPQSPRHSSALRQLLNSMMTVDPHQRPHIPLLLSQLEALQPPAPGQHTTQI

[15] = biological target: Casein kinase II subunit alpha (Homo sapiens) (UniProt P68400); conditions: Compound concentration 1000.0 nM
Chain of Casein kinase II subunit alpha (Homo sapiens) (P68400 whole entry, looked up): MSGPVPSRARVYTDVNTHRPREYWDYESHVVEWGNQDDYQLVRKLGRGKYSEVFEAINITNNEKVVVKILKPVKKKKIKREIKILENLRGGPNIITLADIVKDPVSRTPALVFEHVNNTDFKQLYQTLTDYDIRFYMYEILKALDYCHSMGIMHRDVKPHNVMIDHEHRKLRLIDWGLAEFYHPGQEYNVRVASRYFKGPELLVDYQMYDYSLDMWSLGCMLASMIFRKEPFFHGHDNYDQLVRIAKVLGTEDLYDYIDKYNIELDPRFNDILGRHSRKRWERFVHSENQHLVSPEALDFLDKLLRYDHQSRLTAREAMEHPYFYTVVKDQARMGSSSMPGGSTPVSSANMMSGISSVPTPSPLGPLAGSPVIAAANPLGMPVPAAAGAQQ

Chain of Alpha-1B adrenergic receptor (Homo sapiens) (P35368 whole entry): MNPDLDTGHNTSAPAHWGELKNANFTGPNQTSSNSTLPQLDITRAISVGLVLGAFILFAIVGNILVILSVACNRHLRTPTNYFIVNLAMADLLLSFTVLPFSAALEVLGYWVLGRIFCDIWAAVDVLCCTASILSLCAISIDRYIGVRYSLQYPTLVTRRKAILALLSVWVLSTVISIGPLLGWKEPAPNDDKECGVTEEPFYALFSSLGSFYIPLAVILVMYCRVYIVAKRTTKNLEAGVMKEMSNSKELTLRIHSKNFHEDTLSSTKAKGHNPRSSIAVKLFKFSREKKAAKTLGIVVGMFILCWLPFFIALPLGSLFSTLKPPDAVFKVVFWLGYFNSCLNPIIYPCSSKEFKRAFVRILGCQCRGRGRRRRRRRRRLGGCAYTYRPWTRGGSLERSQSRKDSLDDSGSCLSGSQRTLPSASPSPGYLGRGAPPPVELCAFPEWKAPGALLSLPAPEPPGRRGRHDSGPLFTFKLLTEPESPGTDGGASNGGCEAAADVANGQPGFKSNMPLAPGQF

CCc1ccccc1C(=O)Nc1n[nH]c2c(C)c(F)c(C3C(C#N)=C(C)N(C)C(C)=C3C#N)cc12 [BAY-3827]
inactive: inhibition [1] -9.38% | residual activity [2] 100% | residual activity [3] 100% | residual activity [4] 86% | residual activity [5] 100% | inhibition [6] -6.24% | residual activity [7] 61% | residual activity [8] 99% | residual activity [9] 100% | residual activity [10] 83% | residual activity [11] 100% | residual activity [12] 100% | residual activity [13] 99% | residual activity [14] 79% | residual activity [15] 100%

CC1=C(C#N)C(c2ccc3c(c2)c(NC(=O)c2ccccc2C)nn3C)C(C#N)=C(C)N1 [BAY-974]
inactive: inhibition [1] -4.61% | residual activity [2] 88% | residual activity [3] 84% | residual activity [4] 67% | residual activity [5] 100% | inhibition [6] -6.29% | residual activity [7] 82% | residual activity [8] 100% | residual activity [9] 97% | residual activity [10] 97% | residual activity [11] 71% | residual activity [12] 100% | residual activity [13] 71% | residual activity [14] 83% | residual activity [15] 63%
